Tested on: nonimmortal cells
Test: Senescence-like state in nonimmortal cells after 5Aza-dC
Assay type: cell-based, human
Settings: nonimmortal cells treated with 5Aza-dC

## Nc1ncn([C@H]2C[C@H](O)[C@@H](CO)O2)c(=O)n1 [5-aza-dC, 5-aza-2′-deoxycytidine]
  induction of senescence-like state: does not result in an induction of an senescence-like state

Reference: US20050250137A1, “Molecular targets of cancer and aging” (priority 2002, published 2005)
